Data taken from patent US20090227607A1, “DEAZAPURINES USEFUL AS INHIBITORS OF JANUS KINASES” (priority 2006, published 2009).

Experiments:
[1] = target: JAK-2 enzyme (Homo sapiens, UniProt O60674); assay: JAK2 Inhibition Assay; assay type: biochemical; settings: 15 μM poly(Glu)4Tyr, 12 μM ATP, 25° C.
Summary of the method: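 JAK2 kinase in HEPES pH 7.4 buffer with MgCl2, DTT, NaCl and BSA; final 15 μM poly(Glu)4Tyr and 12 μM [33P]ATP. Enzyme added to start, 20 min at 25 °C, TCA stop, filter capture and scintillation count of 33P incorporation; Ki values.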

[2] = target: T1, JAK3 (Homo sapiens, UniProt P52333); assay: JAK3 Inhibition Assay; assay type: biochemical; settings: 1 μM poly(Glu)4Tyr, 5 μM ATP, 1 nM JAK3, 25° C.; read-out: JAK3 enzyme inhibition data (Ki)
T1 sequence (P52333 1-1124): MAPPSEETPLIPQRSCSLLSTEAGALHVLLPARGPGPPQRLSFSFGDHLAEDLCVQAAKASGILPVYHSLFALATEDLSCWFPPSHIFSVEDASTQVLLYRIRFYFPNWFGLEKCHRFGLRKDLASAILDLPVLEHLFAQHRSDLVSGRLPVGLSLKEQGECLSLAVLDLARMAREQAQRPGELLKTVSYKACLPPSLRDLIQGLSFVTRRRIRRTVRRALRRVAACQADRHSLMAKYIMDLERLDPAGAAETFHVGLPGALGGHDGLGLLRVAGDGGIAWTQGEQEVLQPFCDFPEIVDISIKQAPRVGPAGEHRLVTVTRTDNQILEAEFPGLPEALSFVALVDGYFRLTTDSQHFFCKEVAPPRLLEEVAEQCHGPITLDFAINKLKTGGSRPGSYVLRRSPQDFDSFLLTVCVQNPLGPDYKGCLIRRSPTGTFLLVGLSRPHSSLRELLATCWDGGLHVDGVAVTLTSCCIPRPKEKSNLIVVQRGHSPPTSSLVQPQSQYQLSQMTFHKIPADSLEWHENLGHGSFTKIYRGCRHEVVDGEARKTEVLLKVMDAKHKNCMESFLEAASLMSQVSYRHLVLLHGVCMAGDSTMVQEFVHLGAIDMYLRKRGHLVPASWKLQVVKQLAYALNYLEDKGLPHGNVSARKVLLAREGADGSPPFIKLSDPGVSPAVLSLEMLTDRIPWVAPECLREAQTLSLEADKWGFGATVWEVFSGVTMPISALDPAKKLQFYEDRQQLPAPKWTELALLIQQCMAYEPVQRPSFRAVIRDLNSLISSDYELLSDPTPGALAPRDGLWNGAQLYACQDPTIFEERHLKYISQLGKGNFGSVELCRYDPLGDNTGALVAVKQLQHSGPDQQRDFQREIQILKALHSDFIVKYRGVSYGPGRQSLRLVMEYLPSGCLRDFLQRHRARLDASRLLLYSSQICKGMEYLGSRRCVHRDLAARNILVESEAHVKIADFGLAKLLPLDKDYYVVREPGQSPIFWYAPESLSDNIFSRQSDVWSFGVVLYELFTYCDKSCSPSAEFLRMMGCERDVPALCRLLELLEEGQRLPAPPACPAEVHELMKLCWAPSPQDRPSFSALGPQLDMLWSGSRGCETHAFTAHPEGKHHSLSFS
Summary of the method: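 Radiometric JAK3 (1 nM) reaction with 5 μM [33P]ATP and 1 μM poly(Glu)4Tyr in HEPES pH 7.4 buffer, run for 20 min at 25 °C. Reactions were stopped with TCA and filter-captured, and 33P incorporation was counted; values reported as Ki.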

JAK-2 enzyme, sequence (O60674 whole entry, species assumed): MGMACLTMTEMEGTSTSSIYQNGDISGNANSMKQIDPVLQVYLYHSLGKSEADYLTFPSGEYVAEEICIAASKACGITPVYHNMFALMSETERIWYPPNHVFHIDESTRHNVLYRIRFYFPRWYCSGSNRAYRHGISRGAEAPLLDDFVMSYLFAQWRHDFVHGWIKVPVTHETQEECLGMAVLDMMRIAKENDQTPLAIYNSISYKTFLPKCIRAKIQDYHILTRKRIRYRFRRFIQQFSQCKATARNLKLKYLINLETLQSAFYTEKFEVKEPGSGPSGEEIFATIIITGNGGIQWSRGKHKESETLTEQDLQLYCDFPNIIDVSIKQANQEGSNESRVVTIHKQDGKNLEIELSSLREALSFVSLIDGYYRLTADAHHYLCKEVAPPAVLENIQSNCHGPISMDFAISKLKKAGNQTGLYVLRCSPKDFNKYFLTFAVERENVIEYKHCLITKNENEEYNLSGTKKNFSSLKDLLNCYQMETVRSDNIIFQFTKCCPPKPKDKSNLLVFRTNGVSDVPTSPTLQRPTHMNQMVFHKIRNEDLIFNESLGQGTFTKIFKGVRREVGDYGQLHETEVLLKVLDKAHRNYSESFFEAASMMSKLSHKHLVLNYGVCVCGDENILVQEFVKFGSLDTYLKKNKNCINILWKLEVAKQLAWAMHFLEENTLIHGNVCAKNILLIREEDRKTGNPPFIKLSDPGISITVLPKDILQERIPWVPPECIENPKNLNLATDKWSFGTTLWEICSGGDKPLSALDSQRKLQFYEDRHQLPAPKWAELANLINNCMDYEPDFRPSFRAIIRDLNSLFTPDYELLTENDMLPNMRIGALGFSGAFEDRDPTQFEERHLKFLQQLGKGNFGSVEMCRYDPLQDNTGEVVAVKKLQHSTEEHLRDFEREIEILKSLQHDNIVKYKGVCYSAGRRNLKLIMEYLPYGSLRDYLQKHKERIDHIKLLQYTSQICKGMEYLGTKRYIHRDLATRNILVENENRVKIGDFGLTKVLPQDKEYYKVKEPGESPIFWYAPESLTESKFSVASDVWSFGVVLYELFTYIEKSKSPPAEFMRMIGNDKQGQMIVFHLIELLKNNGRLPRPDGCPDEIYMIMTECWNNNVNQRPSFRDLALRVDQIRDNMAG

SMILES | Ki [1] [nM] | Ki [2] [nM]
O=C(c1ccc(-c2ncnc3[nH]ccc23)o1)N(CC1CCCC1)CC(F)(F)F [Compound 191] | < 100 | < 100
O=C(c1ccc(-c2ncnc3[nH]ccc23)o1)N(CCC(F)(F)F)C1CCCC1 [Compound 193] | < 100 | < 100
CC[C@@H]1CC[C@@H](CC)N1C(=O)c1ccc(-c2ncnc3[nH]ccc23)o1 [Compound 194] | < 100 | < 100
O=C(c1coc(-c2ncnc3[nH]ccc23)c1)N(CC1CC1)CC(F)(F)F [Compound 195] | < 100 | 100 to 500
O=C(c1coc(-c2ncnc3[nH]ccc23)c1)N(CCC(F)(F)F)CC1CC1 [Compound 196] | < 100 | 100 to 500
CC1CC[C@@H](C)N1C(=O)c1coc(-c2ncnc3[nH]ccc23)c1 (stereo partly drawn) [Compound 197] | < 100 | 500 to 5000
O=C(c1ccc(-c2ncnc3[nH]ccc23)o1)N(CCC(F)(F)F)CC1CCCC1 [Compound 212] | < 100 | < 100
O=C(c1ccc(-c2ncnc3[nH]ccc23)o1)N(CCC(F)(F)F)CC1CCC1 [Compound 215] | < 100 | < 100
O=C(c1ccc(-c2ncnc3[nH]ccc23)o1)N(CC1CCC1)CC(F)(F)F [Compound 216] | < 100 | < 100
CC1CCCN1C(=O)c1ccc(-c2ncnc3[nH]ccc23)o1 (stereo not drawn) [Compound 218] | < 100 | 100 to 500
O=C(c1ccc(-c2ncnc3[nH]ccc23)o1)N1CCCC1 [Compound 219] | 100 to 500 | 500 to 5000
NC(=O)C1CCCN1C(=O)c1ccc(-c2ncnc3[nH]ccc23)o1 (stereo not drawn) [Compound 221] | 500 to 5000 | 500 to 5000
Cn1cc(-c2ncnc3[nH]ccc23)cc1C(=O)N(CCC(F)(F)F)CC1CCC1 [Compound 223] | < 100 | < 100
C[C@@H]1CC[C@@H](C)N1C(=O)c1cc(-c2ncnc3[nH]ccc23)cn1C [Compound 224] | < 100 | 100 to 500
Cn1cc(-c2ncnc3[nH]ccc23)cc1C(=O)N(CCC(F)(F)F)CC1CC1 [Compound 225] | < 100 | < 100
Cn1cc(-c2ncnc3[nH]ccc23)cc1C(=O)N(CC1CC1)CC(F)(F)F [Compound 228] | < 100 | < 100
O=C(c1cc(-c2ncnc3[nH]ccc23)co1)N(CCC(F)(F)F)CC1CC1 [Compound 229, N-(cyclopropylmethyl)-4-(7H-pyrrolo[2,3-d]pyrimidin-4-yl)-N-(3,3,3-trifluoropropyl)furan-2-carboxamide] | < 100 | 100 to 500
N#CCCN(CCC(F)(F)F)C(=O)c1cc(-c2ncnc3[nH]ccc23)co1 [Compound 230, N-(2-cyanoethyl)-4-(7H-pyrrolo[2,3-d]pyrimidin-4-yl)-N-(3,3,3-trifluoropropyl)furan-2-carboxamide] | < 100 | 100 to 500
Cn1cc(-c2ncnc3[nH]ccc23)cc1C(=O)NCC(F)(F)F [Compound 235] | < 100 | < 100
Cn1cc(-c2ncnc3[nH]ccc23)cc1C(=O)N(CC1CCC1)CC(F)(F)F [Compound 238] | < 100 | 100 to 500

Other lines, results leading:

Ki [1] [nM] | Ki [2] [nM] | SMILES
100 to 500 | 500 to 5000 | CC#CCN(C(=O)c1cc(-c2ncnc3[nH]ccc23)c[nH]1)C1CCCCC1 [Compound 190]
< 100 | < 100 | CC(C)CN(CCC#N)C(=O)c1ccc(-c2ncnc3[nH]ccc23)o1 [Compound 192]
< 100 | < 100 | CCCCN(CC)C(=O)c1cc(-c2ncnc3[nH]cc(Cl)c23)c[nH]1 [Compound 198]
< 100 | < 100 | CCN(Cc1ccccc1)C(=O)c1cc(-c2ncnc3[nH]cc(Cl)c23)c[nH]1 [Compound 199]
100 to 500 | 500 to 5000 | COCCN(C)C(=O)c1cc(-c2ncnc3[nH]cc(C)c23)c[nH]1 [Compound 200]
< 100 | 100 to 500 | CCCCN(CC)C(=O)c1cc(-c2ncnc3[nH]cc(C)c23)c[nH]1 [Compound 201]
< 100 | 100 to 500 | CCN(Cc1ccccc1)C(=O)c1cc(-c2ncnc3[nH]cc(C)c23)c[nH]1 [Compound 202]
< 100 | 100 to 500 | Cc1c[nH]c2ncnc(-c3c[nH]c(C(=O)N(C)CCc4ccccc4)c3)c12 [Compound 203]
< 100 | 100 to 500 | Cc1c[nH]c2ncnc(-c3c[nH]c(C(=O)N4C(C)C=CC4C)c3)c12 (stereo not drawn) [Compound 204]
< 100 | 100 to 500 | CCCCCN(C)C(=O)c1cc(-c2ncnc3[nH]cc(C)c23)c[nH]1 [Compound 205]
< 100 | 100 to 500 | CCCN(CC)C(=O)c1cc(-c2ncnc3[nH]cc(C)c23)c[nH]1 [Compound 206]
< 100 | 100 to 500 | CCN(CCC#N)C(=O)c1cc(-c2ncnc3[nH]cc(C)c23)c[nH]1 [Compound 207]
< 100 | < 100 | Cc1c[nH]c2ncnc(-c3c[nH]c(C(=O)N(CCC(F)(F)F)CC4CC4)c3)c12 [Compound 208]
< 100 | 100 to 500 | CCCCN(CCC)C(=O)c1cc(-c2ncnc3[nH]cc(C)c23)c[nH]1 [Compound 209]
< 100 | < 100 | CC(C)N(CCC(F)(F)F)C(=O)c1ccc(-c2ncnc3[nH]ccc23)o1 [Compound 210]
< 100 | < 100 | CC(C)CN(CCC(F)(F)F)C(=O)c1ccc(-c2ncnc3[nH]ccc23)o1 [Compound 211]
< 100 | < 100 | C[C@@H]1CC[C@@H](C)N1C(=O)c1cc(-c2ncnc3[nH]cc(Cl)c23)c[nH]1 [Compound 213]
< 100 | < 100 | O=C(NCc1ccccc1)c1cc(-c2ncnc3[nH]ccc23)c[nH]1 [Compound 214]
< 100 | < 100 | C=CCN(CC=C)C(=O)c1ccc(-c2ncnc3[nH]ccc23)o1 [Compound 217]
< 100 | 100 to 500 | C=CCN(C(=O)c1ccc(-c2ncnc3[nH]ccc23)o1)[C@H](C)c1ccccc1 [Compound 220]
< 100 | < 100 | C=CCN(C(=O)c1ccc(-c2ncnc3[nH]ccc23)o1)[C@@H](C)c1ccccc1 [Compound 222]
< 100 | < 100 | Cn1cc(-c2ncnc3[nH]ccc23)cc1C(=O)N(CCC#N)CC1CC1 [Compound 226]
< 100 | < 100 | O=C(c1cc(-c2ncnc3[nH]cc(Cl)c23)c[nH]1)N(CCC(F)(F)F)CC1CC1 [Compound 227]
< 100 | < 100 | O=C(c1cc(-c2ncnc3[nH]ccc23)co1)N(CC1CC1)CC(F)(F)F [Compound 231, N-(cyclopropylmethyl)-4-(7H-pyrrolo[2,3-d]pyrimidin-4-yl)-N-(2,2,2-trifluoroethyl)furan-2-carboxamide]
< 100 | 100 to 500 | CCCCN(CC)C(=O)c1cc(-c2ncnc3[nH]ccc23)cn1C [Compound 232]
< 100 | 500 to 5000 | COCCN(C)C(=O)c1cc(-c2ncnc3[nH]ccc23)cn1C [Compound 233]
< 100 | 500 to 5000 | CCCN(C)C(=O)c1cc(-c2ncnc3[nH]ccc23)cn1C [Compound 234]
< 100 | < 100 | CCN(CCC#N)C(=O)c1cc(-c2ncnc3[nH]ccc23)cn1C [Compound 237]
